Literature values in US6645913B2, “Adjuvant composition” (Cognis Corporation, priority 1999, dated 2003).

Details: glyphosate in acid form

## O=C(O)CNCP(=O)(O)O [glyphosate, N-phosphonomethylglycine]
  water solubility: about 1.2%
